pKi: −log10 of the molar value. Values joined by “and” are separate entries in the source; they are usually repeats but may differ in a detail not shown here. Identical values can stand only once. “Also recorded” adds a separate entry of the source. Like-named read-outs stand apart in the source and are kept apart here.
Experiments:
[1] = target: T1, human thyroid receptor (Homo sapiens, UniProt P10828); assay: Thyroid hormone receptor binding affinity
T1 sequence (P10828 1-461): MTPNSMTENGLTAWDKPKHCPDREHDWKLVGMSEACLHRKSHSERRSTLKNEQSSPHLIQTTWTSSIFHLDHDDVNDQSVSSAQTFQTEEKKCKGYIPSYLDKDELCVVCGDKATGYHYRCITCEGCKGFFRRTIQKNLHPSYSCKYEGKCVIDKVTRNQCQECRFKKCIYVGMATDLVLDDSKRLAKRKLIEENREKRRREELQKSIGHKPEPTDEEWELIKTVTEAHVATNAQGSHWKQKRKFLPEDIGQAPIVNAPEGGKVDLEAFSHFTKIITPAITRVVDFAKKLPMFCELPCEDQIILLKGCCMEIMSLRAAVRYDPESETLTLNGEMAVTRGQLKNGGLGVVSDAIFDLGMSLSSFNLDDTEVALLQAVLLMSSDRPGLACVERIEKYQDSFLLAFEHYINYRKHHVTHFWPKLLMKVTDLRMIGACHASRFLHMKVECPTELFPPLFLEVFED
Excerpt: Partial agonist/antagonists also may exist. (Suitable ligands may be agonists or antagonists).

[2] = tested on: Skin-2 model ZK1301; assay: Skin-2 model: mRNA expression by RT-PCR, semi-quantitative;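 further: Three-dimensional human skin equivalent of dermal fibroblasts and foreskin keratinocytes at an air-liquid interface, exposed for 10 or 48 h, mRNA measured in total RNA by RT-PCR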
Excerpt: A novel synthetic human skin, Skin- 2 model ZK1301 (Advanced Tissue Sciences, La Jolla (USA)) is composed of a three dimensional human skin culture consisting of a dermal fibroblast layer and human foreskin keratinocytes which can be grown with an air-keratinocyte interface to promote normal differentiation and cornification of the model skin.
The following were components of the Skin^2 kits: 9x9 mm skin tissues on agarose, 6-well plates, and Millicell inserts. Two media based on Dulbecco's Modification of Eagle's medium were also included: Maintenance medium (containing 5% fetal calf serum) and serum-free assay medium.
All-trans-retinoic acid, 1,25-(OH)2-vitamin D3, and betamethasone were purchased from Sigma Chemicals (Stockholm). Upon arrival the skin tissues were placed dermal-side down into the center of a Millicell in a 6-well plate well containing prewarmed maintenance medium. The tissues were incubated at 37°C in an atmosphere of 5% CO2 in air. After 24 h the maintenance medium was exchanged.
Following another 24 h the Maintenance medium was removed and replaced by Serum- free assay medium containing 5% "stripped" fetal calf serum. Substances were added within 1 h after medium exchange and the tissues were incubated for 10 or 48 h in the presence of the substances. Medium and substances were changed after 24 h incubation. The cells were grown at an air - liquid interface. At the end of the 48 h-incubation period two tissues were pooled together in a sterile plastic centrifugation tube. The tissue was snap frozen on solid ice (-60°C) and stored at -70°C until used. Duplicate samples were included for each treatment.
Total RNA was extracted from Skin^2 -samples and human skin biopsies using Ultraspec II (Biotecx Laboratories, Inc., Houston, TX). One ml of Ultraspec II was added to each sample which were homogenized by using a Polytron for 2x20 sec at setting 6. Total RNA was extracted according to the protocol supplied by the manufacturer. […] After incubation at 37°C for 60 min, the reaction was stopped by heating at 75°C for 10 min and the mixture stored at -70°C until cDNA amplification was performed.
The tubes were placed in a Thermal cycler (Perkin-Elmer) programmed as follows: (a) 90°C for 90 s; (b) variable number of cycles (see Table 1) of the following sequential steps: 60 s at 94°C, 75 s at annealing temp (see Table 1), 90 s at 72°C; and (c) 7 min at 72°C. […] Gels were recorded by videoprints. The amount of product was estimated on the videopoint or directly on the gel. The amount of transcripts in each lane were compared in relation to two control samples run in parallel.

[3] = tested on: Hairless mice SKH-1; assay: Photodamaged skin: UV-B irradiated hairless mice treated with cream for 16 weeks; type: in vivo; conditions: cream for 16 weeks after 12 weeks of UV-B irradiation, compared to untreated irradiated animals
Method: Hairless mice SKH-1 are UV-B irradiated according to the schedule of (22). After 12 weeks of irradiation, significant wrinkling results. The mice are treated with the thyroid hormone Triac-containing cream for a period of 16 weeks after irradiation. The degree of wrinkling appearing on the irradiated mice is compared to untreated, irradiated animals to which the appropriate pharmaceutical base is not applied.

[4] = tested on: phosphodiesterase; conditions: in vitro, isolated adipocytes; FR2354101; cited from earlier work
[5] = Table 3, Skin-2 model, 10uM, transcriptional response score
[6] = Table 3, Skin-2 model, 10uM, transcriptional response score, listed as L-T-I
[7] = Skin-2 model, 1 µM, semi quantitative mRNA change vs control
[8] = Skin-2 model, 50 nM, semi quantitative mRNA change vs control
[9] = Table 3, Skin-2 model, 50nM, transcriptional response score
[10] = Table 3, Skin-2 model, 1 µM, transcriptional response score

| Structure (SMILES) | pKi [1] | IL-6 [2, 7] | col 1A-1 [2, 7] | col 3A-1 [2, 7] | crabp-II [2, 7] | k1 [2, 7] | k10 [2, 7] | k16 [2, 7] | k19 [2, 7] | tgfbeta-2 [2, 7] | trans gk [2, 7] | col a-1 [2, 10] | col a-3 [2, 10] | gf(pdgf-L) [2, 10] | k1 [2, 10] | k16 [2, 10] | trans gk [2, 10] | k10 [2, 10] | scce [2, 10] | further results |
| --- | --- | --- | --- | --- | --- | --- | --- | --- | --- | --- | --- | --- | --- | --- | --- | --- | --- | --- | --- | --- |
| N[C@@H](Cc1ccc(Oc2ccc(O)cc2)c(I)c1)C(=O)O [L-T-1, 3-idodo-L-Thronine] | 4.70 |  |  |  |  |  |  |  |  |  |  |  |  |  |  |  |  |  |  | binding to the thyroid hormone receptor (in words) ([1]; b58: even at the tested ten micromolar concentration): no thyroid hormone receptor binding activity; also recorded: binds poorly; col a-1 [2, 5]: 0.5; col a-3 [2, 5]: 0.5; gf(pdgf-L) [2, 5]: 1; k1 [2, 5]: 0; k10 [2, 5]: 0; k16 [2, 5]: 0; scce [2, 5]: 1; trans gk [2, 5]: 1; col a-1 [2, 6]: only modest effects; col a-3 [2, 6]: only modest effects; k1 [2, 6]: no inhibition; k10 [2, 6]: no inhibition; scce [2, 6]: positive effect; trans gk [2, 6]: positive effect |
| CC1=C(/C=C/C(C)=C/C=C/C(C)=C/C(=O)O)C(C)(C)CCC1 [RA, All-trans-retinoic acid] |  | -1 | 2 | 1 | 1 | -3 | -1 | -0.5 | -1 | 2 | -3 |  |  |  |  |  |  |  |  | ctgf(pdgf-L) [2, 7]: 1 |
| O=C(O)Cc1cc(I)c(Oc2ccc(O)c(I)c2)c(I)c1 [Triac, tri-iodothyroacetic acid] |  | -0.5 | 2 | 1 | -1 | -2 | -2 | -0.5 | -1 | 2 | -3 | 1 | 1 | 2 and 1 | -1 | 0 | -0.5 |  |  | skin collagen [3]: increase; wrinkle pattern of the animals [3]: significant decrease; dose range at which phosphodiesterase inhibition and cyclic AMP increase occur [4]: approximately 10^-4 M; ctgf(pdgf-L) [2, 8]: 1; k16 [2, 8]: -1; k19 [2, 8]: -1; scce [2, 7]: -2; k1 [2, 9]: -2; k16 [2, 9]: 0 |
| C[C@H]1C[C@H]2[C@@H]3CCC4=CC(=O)C=C[C@]4(C)[C@@]3(F)[C@@H](O)C[C@]2(C)[C@@]1(O)C(=O)CO [betameth, betamethasone] |  | -2 | 0.5 | -0.5 | -1 | -3 | -0.5 | -1 | -0.5 | 0 | -1 |  |  |  |  |  |  |  |  | ctgf(pdgf-L) [2, 7]: 1; scce [2, 7]: -1 |
| N[C@@H](Cc1cc(I)c(Oc2ccc(O)c(I)c2)c(I)c1)C(=O)O [compound number 1, Trilodothyronine] |  |  |  |  |  |  |  |  |  |  |  | 1 | 2 | 1 | -2 | 0 | 0 | -0.5 | 0.5 |  |
| O=C(O)c1cc(I)c(Oc2ccc(O)c(I)c2)c(I)c1 [compound number 2] | 10.00 |  |  |  |  |  |  |  |  |  |  | 2 | 1 | 1 | -1 | 0 | 0.5 | 0 | 0.5 |  |
| N[C@@H](Cc1cc(I)c(Oc2cc(I)c(O)c(I)c2)c(I)c1)C(=O)O [compound number 3, Thyroxine] |  |  |  |  |  |  |  |  |  |  |  | 2 | 0.5 | 1 | -2 | 0 | 1 | -1 | 0 |  |
| NC(Cc1cc(Br)c(Oc2ccc(O)c(Cc3ccc(=O)[nH]n3)c2)c(Br)c1)C(=O)O (stereo not shown) [compound number 5] | 8.10 |  |  |  |  |  |  |  |  |  |  | 0 | 0 |  |  | -0.5 |  |  |  | relative selectivity of gene responses ([2]; Skin-2 model, 1 µM, epidermal differentiation genes versus collagen genes): relative selectively for keratin 1, tranglutaminase K and SCCE responses over collagen responses |
| Cc1cc(C[C@H](N)C(=O)O)cc(C)c1Oc1ccc(O)c(C(C)C)c1 [compound number 6, 1-3,5-Dimethyl-3'-isopropylthyronine] |  |  |  |  |  |  |  |  |  |  |  | 1 | 0.5 | 1 | -2 | 0 | -2 | -1 | -1 | pKi ([1]; Table 3, binding affinity to the human thyroid receptor, read-out: Ki): 7.12 |
| Cc1cc(NC(=O)C(=O)O)cc(C)c1Oc1ccc(O)c(C(C)C)c1 [compound number 7, N-[3,5-Dimethy-4-(4'-hydroxy-3'-isopropylphenoxy)-phenyl]oxamic Acid] | 10.00 |  |  |  |  |  |  |  |  |  |  | 1 | 1 | 1 | -1 | 0.5 | -1 | 1 | -1 |  |
| C=C1C(=CC=C2CCCC3(C)C2CCC3C(C)CCCC(C)(C)O)CC(O)CC1O (stereo not shown) [vit D, 1,25-(OH)2-vitamin D3] |  | -1 | 2 | 2 | -1 | 0 | -1 | 0 | 0 | 2 | -1 |  |  |  |  |  |  |  |  | ctgf(pdgf-L) [2, 7]: 0; scce [2, 7]: 0 |

Reference: EP0831769B2, “NOVEL USES FOR THYROID HORMONES OR THYROID HORMONE-LIKE COMPOUNDS” (Lavin, Dr., Thomas N., priority 1995, dated 1996)
